Values of other authors, collected in patent US6342501B1, “Pyrrolo[2,3-d] pyrimidines as antiviral agents” (The Regents of the University of Michigan, priority 1994, dated 2002).

Experiments:
[1] = test system: HSV-1; details: prior studies; mechanism other than inhibition of DNA synthesis, early in replication cycle; cited from earlier work
[2] = test system: HCMV; details: prior studies; mechanism other than inhibition of DNA synthesis, early in replication cycle; cited from earlier work

Structure (SMILES): COCCOCn1cc(C(N)=S)c2c(N)ncnc21 [compound 5b, 4-amino-7-[(2-methoxyethoxy)methyl]pyrrolo[2,3-d]pyrimidine-5-thiocarboxamide]
- inhibition of HSV-1 viral replication (in words) [1]: inhibited
- inhibition of HCMV viral replication (in words) [2]: inhibited
